Patent US7435837B2, “Dihydrobenzofuranyl alkanamine derivatives and methods for using same” (Wyeth, priority 2003, dated 2008)
Where two headings read alike, the source gives them in different places.

Tests used:
human 5-HT2C receptor = target: T1, human 5-HT2C receptor (Homo sapiens, UniProt P28335); test: 5-HT2C receptor-stimulated calcium mobilization (FLIPR) in CHO cells; format: cell-based; settings: for Emax: CHO; for EC50: calcium mobilization, CHO cells stably expressing human 5-HT2C;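 for all read-outs here: Fluo-3-AM fluorescence read on FLIPR every 1 s, agonist added after 10 baseline reads, response taken as peak minus lowest raw fluorescence count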
T1 sequence (P28335 33-458): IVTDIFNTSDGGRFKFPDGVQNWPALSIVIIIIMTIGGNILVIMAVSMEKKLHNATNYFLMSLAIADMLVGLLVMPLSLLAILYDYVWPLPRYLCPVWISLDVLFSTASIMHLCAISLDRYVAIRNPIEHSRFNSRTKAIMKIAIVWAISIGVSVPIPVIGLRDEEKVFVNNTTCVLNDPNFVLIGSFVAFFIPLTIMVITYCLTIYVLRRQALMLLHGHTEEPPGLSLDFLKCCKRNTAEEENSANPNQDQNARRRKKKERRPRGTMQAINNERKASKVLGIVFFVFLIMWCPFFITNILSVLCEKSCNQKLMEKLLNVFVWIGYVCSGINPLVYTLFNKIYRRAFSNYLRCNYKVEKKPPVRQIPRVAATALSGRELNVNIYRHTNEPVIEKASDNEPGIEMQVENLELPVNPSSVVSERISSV

[1] = target: T2, human 5-hydroxytryptamine-2C (h5-HT2C) receptor (Homo sapiens, UniProt P28335); test: [125I]DOI binding to membranes of CHO cells expressing the human 5-HT2C receptor; settings: [125I]DOI radioligand, CHO cell membranes, room temperature 60 min
T2 construct: expressed in transfected cells; host or cells: CHO (Chinese Hamster Ovary) cells; membranes
T2 sequence (P28335 33-458): T1 sequence (P28335 33-458)

[2] = percentage of the response observed with a maximally effective concentration of 5-HT, read-out: 5-HT2C Function Emax (%)
[3] = percentage of the response observed with a maximally effective concentration of 5-HT

SMILES	Emax (human 5-HT2C receptor; [2])	EC50 (human 5-HT2C receptor; read-out: 5-HT2C Function EC50)	Ki ([1]; read-out: 5-HT2C Affinity Ki)	5-HT2C Function Emax (%) (human 5-HT2C receptor; [3])	EC50 (human 5-HT2C receptor; 5-HT2C Function EC50 (nM))	Emax (human 5-HT2C receptor; read-out: 5-HT2C Function Emax (%), percentage of the response observed with a maximally effective concentration of 5-HT)	Ki ([1]; 5-HT2C Affinity Ki (nM))
NCC1Cc2cc(F)cc(-c3ccccc3Cl)c2O1 (single isomer, unassigned; (-)) [Example 102, (−)-1-[7-(2-chlorophenyl)-5-fluoro-2,3-dihydro-1-benzofuran-2-yl]methanamine]		32 nM	8 nM	65%			
CNCC1Cc2cc(OC)cc(-c3ccc(F)cc3F)c2O1 (racemic) [Example 497, (±)-{[7-(2,4-difluorophenyl)-5-methoxy-2,3-dihydro-1-benzofuran-2-yl]methyl}methylamine]	70%	315 nM	37 nM				
COc1cc2c(c(-c3ccccc3Cl)c1)OC(CN)C2 (racemic) [Example 357, (±)-{[7-(2-chlorophenyl)-5-methoxy-2,3-dihydro-1-benzofuran-2-yl]methyl}amine]					2 nM	100%	18 nM
NCC1Cc2cccc(-c3c(Cl)cccc3Cl)c2O1 (single isomer, unassigned; (-)) [Example 141, (−)-1-[7-(2,6-dichlorophenyl)-2,3-dihydro-1-benzofuran-2-yl]methanamine]	90%	0.03 nM	0.07 nM				
CNCC1Cc2cc(C)cc(-c3cc(Cl)ccc3Cl)c2O1 (racemic) [Example 486, (±)-{[7-(2,5-dichlorophenyl)-5-methyl-2,3-dihydro-1-benzofuran-2-yl]methyl}methylamine]	90%	5 nM	0.2 nM				
CC(C)(C)c1cc(Cl)cc2c1OC(CN)C2 (single isomer, unassigned; (-)) [Example 28, (−)-1-(7-tert-butyl-5-chloro-2,3-dihydro-1-benzofuran-2-yl)methanamine]	90%	77 nM	16 nM				
COc1ccccc1-c1cc(F)cc2c1OC(CN)C2 (racemic) [Example 195, (±)-{[5-fluoro-7-(2-methoxyphenyl)-2,3-dihydro-1-benzofuran-2-yl]methyl}amine]	80%	9 nM	0.48 nM				
CC(C)(C)c1cccc2c1OC(CN)C2 (single isomer, unassigned; (-)) [Example 25, (−)-1-(7-tert-butyl-2,3-dihydro-1-benzofuran-2-yl)methanamine]	90%	10 nM	18 nM				
COc1ccc(OC)c(-c2cc(OC)cc3c2OC(CN)C3)c1 (racemic) [Example 371, (±)-{[7-(2,5-dimethoxyphenyl)-5-methoxy-2,3-dihydro-1-benzofuran-2-yl]methyl}amine]	80%	64 nM	14 nM				
COc1cc2c(c(-c3cccc(Cl)c3Cl)c1)OC(CN)C2 (racemic) [Example 362, (±)-{[7-(2,3-dichlorophenyl)-5-methoxy-2,3-dihydro-1-benzofuran-2-yl]methyl}amine]	70%	343 nM	36 nM				
CC(C)c1cc2c(c(-c3ccccc3Cl)c1)OC(CN)C2 (racemic) [Example 308, (±)-{[5-isopropyl-7-(2-chlorophenyl)-2,3-dihydro-1-benzofuran-2-yl]methyl}amine]	90%	24 nM	0.9 nM				
CNCC1Cc2cccc(-c3ccccc3Cl)c2O1 (single isomer, unassigned; (-)) [Example 411, (−)-N-methyl-1-[7-(2-chlorophenyl)-2,3-dihydro-1-benzofuran-2-yl]methanamine]		57 nM	2.6 nM	80%			
Cc1c(Cl)cc(C(C)C)c2c1CC(CN)O2 (single isomer, unassigned; (-)) [Example 22, (−)-1-(5-chloro-7-isopropyl-4-methyl-2,3-dihydro-1-benzofuran-2-yl)methanamine]	90%	25 nM	5 nM				
NCC1Cc2cc(Cl)cc(-c3ccc(Cl)cc3Cl)c2O1 (racemic) [Example 251, (±)-{[5-chloro-7-(2,4-dichlorophenyl)-2,3-dihydro-1-benzofuran-2-yl]methyl}amine]	90%	8 nM	0.38 nM				
CNCC1Cc2cc(C)cc(-c3cccc(Cl)c3)c2O1 (racemic) [Example 479, (±)-{[7-(3-chlorophenyl)-5-methyl-2,3-dihydro-1-benzofuran-2-yl]methyl}methylamine]	80%	71 nM	0.5 nM				
NCC1Cc2c(cccc2-c2ccccc2)O1 (single isomer, unassigned; (+)) [Example 2, (+)-1-(4-phenyl-2,3-dihydro-1-benzofuran-2-yl)methanamine]	90%	61 nM	16 nM				
NCC1Cc2cccc(-c3ccc(F)cc3)c2O1 (racemic) [Example 73, (±)-1-[7-(4-fluorophenyl)-2,3-dihydro-1-benzofuran-2-yl]methanamine]	100%	41 nM	5 nM				
NCC1Cc2cc(Cl)cc(-c3cccnc3)c2O1 (racemic) [Example 266, (±)-{[(5-chloro-7-pyridin-3-yl-2,3-dihydro-1-benzofuran-2-yl)methyl]amine]	90%	3 nM	4.9 nM				

Further compounds by falling EC50 (human 5-HT2C receptor; read-out: 5-HT2C Function EC50), results first:

Emax (human 5-HT2C receptor; [2])	EC50 (human 5-HT2C receptor; read-out: 5-HT2C Function EC50)	Ki ([1]; read-out: 5-HT2C Affinity Ki)	5-HT2C Function Emax (%) (human 5-HT2C receptor; [3])	SMILES	EC50 (human 5-HT2C receptor; 5-HT2C Function EC50 (nM))	Emax (human 5-HT2C receptor; read-out: 5-HT2C Function Emax (%), percentage of the response observed with a maximally effective concentration of 5-HT)	Ki ([1]; 5-HT2C Affinity Ki (nM))
80%	143 nM	7 nM		CNCC1Cc2cc(C)cc(-c3ccc(F)cc3)c2O1 (racemic) [Example 482, (±)-{[7-(4-fluorophenyl)-5-methyl-2,3-dihydro-1-benzofuran-2-yl]methyl}methylamine]			
	73 nM	9 nM	80%	Cc1c(Cl)cc(C(C)C)c2c1CC(CN)O2 (single isomer, unassigned; (+)) [Example 23, (+)-1-(5-chloro-7-isopropyl-4-methyl-2,3-dihydro-1-benzofuran-2-yl)methanamine]			
80%	25 nM	3.2 nM		CNCC1Cc2cc(C)cc(-c3ccccc3F)c2O1 (racemic) [Example 475, (±)-{[7-(2-fluorophenyl)-5-methyl-2,3-dihydro-1-benzofuran-2-yl]methyl}methylamine]			
100%	12 nM	0.3 nM		NCC1Cc2cccc(-c3ccccc3Cl)c2O1 (racemic) [Example 60, (±)-1-[7-(2-chlorophenyl)-2,3-dihydro-1-benzofuran-2-yl]methanamine]			
100%	9.6 nM	5 nM		CC(C)c1cccc2c1OC(CN)C2 (racemic) [Example 18, (±)-(7-isopropyl-2,3-dihydro-1-benzofuran-2-yl)methylamine]			
90%	5 nM	2.4 nM		NCC1Cc2cccc(-c3ccc(F)cc3F)c2O1 (racemic) [Example 146, (±)-1-[7-(2,4-difluorophenyl)-2,3-dihydro-1-benzofuran-2-yl]methanamine]			
90%	1 nM	6.3 nM		COc1ccc(-c2cccc3c2OC(CN)C3)c(OC)c1 (racemic) [Example 143, (±)-1-[7-(2,4-dimethoxyphenyl)-2,3-dihydro-1-benzofuran-2-yl]methanamine]			
90%	0.72 nM	0.3 nM		NCC1Cc2cccc(-c3c(Cl)cccc3Cl)c2O1 (racemic) [Example 140, (±)-1-[7-(2,6-dichlorophenyl)-2,3-dihydro-1-benzofuran-2-yl]methanamine]			
